Data as given in patent US5028590A, “Derivatives of A54145 cyclic peptides” (priority 1988, dated 1991).

Experiments:
[1] = system: Streptococcus sp. group D X66; assay: Agar-dilution MIC, Streptococcus sp. group D X66; type: cell-based
Protocol: (§1) The MIC's in Table IV were determined by conventional agar-dilution assays.

[2] = system: Staphylococcus aureus X1.1; assay: Agar-dilution MIC, Staphylococcus aureus X1.1; type: cell-based
Protocol: as §1

[3] = system: Streptococcus pyogenes C203; assay: Agar-dilution MIC, Streptococcus pyogenes C203; type: cell-based
Protocol: as §1

[4] = system: Staphylococcus aureus S13E; details: agar dilution
Protocol: as §1

[5] = system: Staphylococcus aureus X400; assay: Agar-dilution MIC, Staphylococcus aureus X400; type: cell-based
Protocol: as §1

[6] = system: Streptococcus sp. group D 2041; assay: Agar-dilution MIC, Streptococcus sp. group D 2041; type: cell-based
Protocol: as §1

[7] = system: Staphylococcus epidermidis EPI1; type: cell-based; details: agar dilution
Protocol: as §1

[8] = system: Streptococcus pneumoniae Park 1; type: cell-based; details: agar dilution
Protocol: as §1

[9] = system: Staphylococcus epidermidis 222; assay: Agar-dilution MIC, Staphylococcus epidermidis 222; type: cell-based
Streptococcus pyogenes = assay: In vivo protection of experimentally infected mice (ED50); details: administered subcutaneously, doses given 1 and 4 hours postinfection
Protocol: The formula 1a compounds have shown in vivo antimicrobial activity against experimentally-induced infections in laboratory animals. When two doses of test compound were administered to mice experimentally infected with Streptococcus pyogenes or Staphylococcus aureus, the activity observed was measured as an ED50 value [effective dose in mg/kg to protect 50% of the test animals: see Warren Wick, et al., J. Bacteriol. 81, 233-235 (1961)].

[10] = system: Staphylococcus aureus V41; assay: Agar-dilution MIC, Staphylococcus aureus V41; type: cell-based
Protocol: as §1

[11] = Relative toxicity, median lethal dose in mice; type: in vivo; details: administered IP in mice
Text: Table VI summarizes the relative toxicity of illustrative formula 1a compounds.
^a When administered IP in mice

Substance | MIC [1] [µg/mL] | MIC [2] [µg/mL] | MIC [3] [µg/mL] | MIC [4] [µg/mL] | MIC [5] [µg/mL] | MIC [6] [µg/mL] | MIC [7] [µg/mL] | MIC [8] [µg/mL] | MIC [9] [µg/mL] | ED50 vs. Streptococcus pyogenes (Streptococcus pyogenes) [mg/kg × 2] | MIC [10] [µg/mL] | Median Lethal Dose [11] [mg/kg]
NTrp -(n-Decanoyl)-A54145F Nucleus [Compound 10] | 128 | 16 | 4 | 16 | 16 | 128 | 16 | 32 | 16 | 10.8 | 16 | > 505
NTrp -(n-Tetradecanoyl)-A54145 Nucleus [Compound 26] | 2 | 0.25 | 0.06 | 0.25 | 0.5 | 4 | 0.5 | 0.125 | 0.5 |  | 0.25 | 
NTrp -(n-Dodecanoyl)-A54145A Nucleus [Compound 4] | 4 | 1 | 0.125 | 2 | 1 | 8 | 1 | 2 | 1 | 1.15 | 1 | 321
NTrp -(n-Undecanoyl)-A54145A Nucleus [Compound 2] | 16 | 2 | 0.5 | 4 | 4 | 32 | 2 | 2 | 2 | 1.65 | 4 | > 520
NTrp -(n-Nonanoyl)-A54154A Nucleus [Compound 6] | 128 | 32 | 4 | 32 | 32 |  | 16 | 64 | 16 | 10.6 | 32 | > 510
